Assays:
[1] = target: T1, human MetAP2 enzyme (Homo sapiens, UniProt P50579); test: MetAP2 enzyme assay, enzyme complexed with manganese ions; details: MetAP2 Mn pIC50, MetAP2 enzyme complexed with manganese ions; Met-AMC substrate at Km
Method: DNA encoding the full-length sequence of human MetAP2 enzyme is amplified by PCR and cloned into a pFastBac expression vector (Invitrogen). Recombinant baculovirus incorporating the MetAP2 construct is generated by transposition using the Bac-to-Bac system (Invitrogen). The expression of recombinant protein is carried out by infection of Spodoptera frugiperda Sf9 cells (Invitrogen) in 5 L Wave Bioreactors (Wave Biotech). Recombinant protein is isolated from cellular extracts by binding to an SP Hitrap Fast Flow or SP Sepharose (Sigma) column, and the protein is eluted using a NaCl gradient. Partially purified extracts of MetAP2 are further purified by an AKTA FPLC over a Superdex-200 column (GE). The purity of MetAP2 protein is determined on denaturing SDS-PAGE gel.
The results for each well are expressed as percent inhibition and calculated using the equation:

[2] = target: T1, human MetAP2 enzyme; test: MetAP2 enzyme assay, enzyme complexed with cobalt ions; details: MetAP2 Co pIC50, MetAP2 enzyme complexed with cobalt ions; Met-AMC substrate at Km

T1 sequence (P50579 whole entry): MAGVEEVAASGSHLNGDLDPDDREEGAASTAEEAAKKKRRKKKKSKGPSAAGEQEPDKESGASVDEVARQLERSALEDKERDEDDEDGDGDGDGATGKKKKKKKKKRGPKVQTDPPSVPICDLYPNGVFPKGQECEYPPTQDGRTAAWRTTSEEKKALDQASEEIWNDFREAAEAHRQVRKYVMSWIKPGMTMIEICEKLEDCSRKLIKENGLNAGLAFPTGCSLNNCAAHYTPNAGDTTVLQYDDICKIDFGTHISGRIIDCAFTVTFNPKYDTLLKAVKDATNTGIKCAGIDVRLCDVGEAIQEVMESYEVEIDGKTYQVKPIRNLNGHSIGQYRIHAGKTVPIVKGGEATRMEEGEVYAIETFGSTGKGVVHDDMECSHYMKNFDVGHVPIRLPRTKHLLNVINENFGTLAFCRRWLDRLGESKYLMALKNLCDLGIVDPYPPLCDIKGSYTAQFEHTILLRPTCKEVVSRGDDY

Row | IC50 [1] [nM] | IC50 [2] [nM] | Structure (SMILES)
1 | 7.94 | 25.1 | Cc1nc(N2CCOCC2)ccc1-c1cc(C(F)(F)F)cc2[nH]ncc12 [Example 399, 4-(6-methyl-5-(6-(trifluoromethyl)-1H-indazol-4-yl)pyridin-2-yl)morpholine]
2 | 12.6 | 79.4 | Cc1nn(C(F)F)c(C)c1-c1cc(C(F)(F)F)cc2[nH]ncc12 [Example 348, 4-(1-(difluoromethyl)-3,5-dimethyl-1H-pyrazol-4-yl)-6-(trifluoromethyl)-1H-indazole]
3 | 5.01 | 50.1 | NS(=O)(=O)c1cc(F)c(-c2cc(C(F)(F)F)cc3[nH]ncc23)cc1F [Example 376, 2,5-difluoro-4-(6-(trifluoromethyl)-1H-indazol-4-yl)benzenesulfonamide]
4 | 3.98 | 63.1 | CN1CCN(C(=O)c2cncc(-c3cc(C(F)(F)F)cc4[nH]ncc34)c2)CC1 [Example 287, (4-methylpiperazin-1-yl)(5-(6-(trifluoromethyl)-1H-indazol-4-yl)pyridin-3-yl)methanone]
5 | 10 | 50.1 | COc1ccc(CC(=O)N2CCOCC2)cc1-c1cc(C(F)(F)F)cc2[nH]ncc12 [Example 316, 2-(4-methoxy-3-(6-(trifluoromethyl)-1H-indazol-4-yl)phenyl)-1-morpholinoethanone]
6 | 10 | 15.8 | O=C(NCCO)c1ccc(-c2cc(C(F)(F)F)cc3[nH]ncc23)c(Cl)c1 [Example 331, 3-chloro-N-(2-hydroxyethyl)-4-(6-(trifluoromethyl)-1H-indazol-4-yl)benzamide]
7 | 25.1 | 63.1 | COc1ccc(C(=O)N2CCN(C)C(=O)C2)cc1-c1cc(C(F)(F)F)cc2[nH]ncc12 [Example 325, 4-(4-methoxy-3-(6-(trifluoromethyl)-1H-indazol-4-yl)benzoyl)-1-methylpiperazin-2-one]
8 | 3.16 | 39.8 | Cc1c(-c2cc(C(F)(F)F)cc3[nH]ncc23)ccc(=O)n1C [Example 402, 1,6-dimethyl-5-(6-(trifluoromethyl)-1H-indazol-4-yl)pyridin-2(1H)-one]
9 | 5.01 | 50.1 | Cc1nc(C#N)ccc1-c1cc(C(F)(F)F)cc2[nH]ncc12 [Example 377, 6-methyl-5-(6-(trifluoromethyl)-1H-indazol-4-yl)picolinonitrile]
10 | 5.01 | 31.6 | COc1ncc(-c2cc(C(F)(F)F)cc3[nH]ncc23)cc1C(=O)N1CCN(C)CC1 [Example 288, (2-methoxy-5-(6-(trifluoromethyl)-1H-indazol-4-yl)pyridin-3-yl)(4-methylpiperazin-1-yl)methanone]
11 | 7.94 | 12.6 | Cc1nc(N2CCN(C)CC2)ccc1-c1cc(C(F)(F)F)cc2[nH]ncc12 [Example 400, 4-(2-methyl-6-(4-methylpiperazin-1-yl)pyridin-3-yl)-6-(trifluoromethyl)-1H-indazole]
12 | 3.98 | 15.8 | CNc1nc(C)c(-c2cc(C(F)(F)F)cc3[nH]ncc23)cc1C(=O)N1CC(O)C1 [Example 397, (3-hydroxyazetidin-1-yl)(6-methyl-2-(methylamino)-5-(6-(trifluoromethyl)-1H-indazol-4-yl)pyridin-3-yl)methanone]
13 | 15.8 | 79.4 | Cc1nn(CC(=O)N(C)C)c(C)c1-c1cc(C(F)(F)F)cc2[nH]ncc12 [Example 363, 2-(3,5-dimethyl-4-(6-(trifluoromethyl)-1H-indazol-4-yl)-1H-pyrazol-1-yl)-N,N-dimethylacetamide]
14 | 7.94 | 63.1 | FC(F)(F)c1cc(-c2ccc(OCCN3CCOCC3)cc2)c2cn[nH]c2c1 [Example 281, 4-(2-(4-(6-(trifluoromethyl)-1H-indazol-4-yl)phenoxy)ethyl)morpholine]
15 | 31.6 | 1580 | O=C(c1ncc(-c2cc(C(F)(F)F)cc3[nH]ncc23)cn1)N1CCOCC1 [Example 294, morpholino(5-(6-(trifluoromethyl)-1H-indazol-4-yl)pyrimidin-2-yl)methanone]
16 | 6.31 | 39.8 | NS(=O)(=O)c1ccc(-c2cc(C(F)(F)F)cc3[nH]ncc23)c(F)c1 [Example 342, 3-fluoro-4-(6-(trifluoromethyl)-1H-indazol-4-yl)benzenesulfonamide]

Continued, compound first:

Row | Structure (SMILES) | IC50 [1] [nM] | IC50 [2] [nM]
17 | Nc1ncc(Cl)cc1-c1cc(C(F)(F)F)cc2[nH]ncc12 [Example 137, 5-chloro-3-(6-(trifluoromethyl)-1H-indazol-4-yl)pyridin-2-amine] | 10 | 158
18 | FC(F)(F)c1cc(-c2cnc(N3CCOCC3)nc2)c2cn[nH]c2c1 [Example 118, 4-(5-(6-(trifluoromethyl)-1H-indazol-4-yl)pyrimidin-2-yl)morpholine] | 6.31 | 39.8
19 | O=S(=O)(c1ccc(-c2cc(C(F)(F)F)cc3[nH]ncc23)cc1)N1CCOCC1 [Example 225, 4-(4-(6-(trifluoromethyl)-1H-indazol-4-yl)phenylsulfonyl)morpholine] | 7.94 | 100
20 | CC(C)Oc1ncccc1-c1cc(C(F)(F)F)cc2[nH]ncc12 [Example 143, 4-(2-isopropoxypyridin-3-yl)-6-(trifluoromethyl)-1H-indazole] | 15.8 | 63.1
21 | NC(=O)c1cccc(-c2cc(C(F)(F)F)cc3[nH]ncc23)c1 [Example 18, 3-(6-(trifluoromethyl)-1H-indazol-4-yl)benzamide] | 3.16 | 25.1
22 | FC(F)(F)c1cc(-c2cnc3ccccn23)c2cn[nH]c2c1 [Example 149, 4-(imidazo[1,2-a]pyridin-3-yl)-6-(trifluoromethyl)-1H-indazole] | 63.1 | 501
23 | OCc1cccc(-c2cc(C(F)(F)F)cc3[nH]ncc23)c1 [Example 8, (3-(6-(trifluoromethyl)-1H-indazol-4-yl)phenyl)methanol] | 3.16 | 39.8
24 | CN1CCN(C(=O)c2ccc(-c3cc(C(F)(F)F)cc4[nH]ncc34)cn2)CC1 [Example 271, (4-methylpiperazin-1-yl)(5-(6-(trifluoromethyl)-1H-indazol-4-yl)pyridin-2-yl)methanone] | 12.6 | 316
25 | O=C(Cn1cncn1)NCc1ccccc1-c1cc(C(F)(F)F)cc2[nH]ncc12 [Example 202, 2-(1H-1,2,4-triazol-1-yl)-N-(2-(6-(trifluoromethyl)-1H-indazol-4-yl)benzyl)acetamide] | 25.1 | 501
26 | Cc1nc2[nH]cnc2cc1-c1cc(C(F)(F)F)cc2[nH]ncc12 [Example 195, 5-methyl-6-(6-(trifluoromethyl)-1H-indazol-4-yl)-3H-imidazo[4,5-b]pyridine] | 6.31 | 25.1
27 | FC(F)(F)c1cc(-c2csc(N3CCOCC3)n2)c2cn[nH]c2c1 [Example 60, 4-(4-(6-(trifluoromethyl)-1H-indazol-4-yl)thiazol-2-yl)morpholine] | 50.1 | 1000
28 | Cc1nn(CCC(N)=O)c(C)c1-c1cc(C(F)(F)F)cc2[nH]ncc12 [Example 172, 3-(3,5-dimethyl-4-(6-(trifluoromethyl)-1H-indazol-4-yl)-1H-pyrazol-1-yl)propanamide] | 7.94 | 50.1
29 | Nc1cc(Cl)cnc1-c1cc(C(F)(F)F)cc2[nH]ncc12 [Example 216, 5-chloro-2-(6-(trifluoromethyl)-1H-indazol-4-yl)pyridin-3-amine] | 10 | 398
30 | Cc1cc(S(=O)(=O)N(C)C)ccc1-c1cc(C(F)(F)F)cc2[nH]ncc12 [Example 125, N,N,3-trimethyl-4-(6-(trifluoromethyl)-1H-indazol-4-yl)benzenesulfonamide] | 31.6 | 158
31 | Cc1cc(S(N)(=O)=O)ccc1-c1cc(C(F)(F)F)cc2[nH]ncc12 [Example 186, 3-methyl-4-(6-(trifluoromethyl)-1H-indazol-4-yl)benzenesulfonamide] | 7.94 | 20
32 | Fc1c(-c2cc(C(F)(F)F)cc3[nH]ncc23)ccnc1N1CCOCC1 [Example 65, 4-(3-fluoro-4-(6-(trifluoromethyl)-1H-indazol-4-yl)pyridin-2-yl)morpholine] | 12.6 | 15.8
33 | C[C@H](O)CNc1ncc(-c2cc(C(F)(F)F)cc3[nH]ncc23)cn1 [Example 208, (S)-1-(5-(6-(trifluoromethyl)-1H-indazol-4-yl)pyrimidin-2-ylamino)propan-2-ol] | 6.31 | 79.4
34 | FC(F)(F)c1cc(-c2cccnc2OCc2ccccc2)c2cn[nH]c2c1 [Example 99, 4-(2-(benzyloxy)pyridin-3-yl)-6-(trifluoromethyl)-1H-indazole] | 39.8 | 631
35 | Cc1nc(NS(C)(=O)=O)ccc1-c1cc(C(F)(F)F)cc2[nH]ncc12 [Example 257, N-(6-methyl-5-(6-(trifluoromethyl)-1H-indazol-4-yl)pyridin-2-yl)methanesulfonamide] | 7.94 | 50.1
36 | O=C(NCCO)c1ccc(-c2cc(C(F)(F)F)cc3[nH]ncc23)cn1 [Example 270, N-(2-hydroxyethyl)-5-(6-(trifluoromethyl)-1H-indazol-4-yl)picolinamide] | 3.16 | 39.8
37 | Cc1nnc(-c2ccc(-c3cc(C(F)(F)F)cc4[nH]ncc34)cc2)o1 [Example 120, 2-methyl-5-(4-(6-(trifluoromethyl)-1H-indazol-4-yl)phenyl)-1,3,4-oxadiazole] | 15.8 | 63.1
38 | O=C1NCc2c1cccc2-c1cc(C(F)(F)F)cc2[nH]ncc12 [Example 141, 4-(6-(trifluoromethyl)-1H-indazol-4-yl)isoindolin-1-one] | 5.01 | 12.6
39 | CC(C)CNC(=O)c1cccc(-c2cc(C(F)(F)F)cc3[nH]ncc23)c1 [Example 28, N-isobutyl-3-(6-(trifluoromethyl)-1H-indazol-4-yl)benzamide] | 25.1 | 158
